Measurements published in PubChem BioAssay (NCI).
Where “and” joins values, the source holds several entries; their conditions need not be identical. Equal entries are not always repeated.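 Assay format: 96-well plates, 48-hour exposure. At the GI50, growth is halved. TGI: concentration producing complete growth inhibition.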

Columns and labels:
Assay in all cases: DTP human tumour cell line panel, 48 h
786-0 renal = system: 786-0 renal
A498 renal = system: A498 renal
A549 NSCLC = system: A549 NSCLC
ACHN renal = system: ACHN renal
CAKI-1 renal = system: CAKI-1 renal
CCRF-CEM leukemia = system: CCRF-CEM leukemia
COLO 205 colon = system: COLO 205 colon
DLD-1 colon = system: DLD-1 colon
DMS 114 small cell lung = system: DMS 114 small cell lung
DMS 273 small cell lung = system: DMS 273 small cell lung
EKVX NSCLC = system: EKVX NSCLC
HCC-2998 colon = system: HCC-2998 colon
HCT-116 colon = system: HCT-116 colon
HCT-15 colon = system: HCT-15 colon
HL-60(TB) leukemia = system: HL-60(TB) leukemia
HOP-18 NSCLC = system: HOP-18 NSCLC
HOP-62 NSCLC = system: HOP-62 NSCLC
HOP-92 NSCLC = system: HOP-92 NSCLC
HT29 colon = system: HT29 colon
IGROV1 ovarian = system: IGROV1 ovarian
K-562 leukemia = system: K-562 leukemia
KM12 colon = system: KM12 colon
KM20L2 colon = system: KM20L2 colon
LOX IMVI melanoma = system: LOX IMVI melanoma
LXFL 529 NSCLC = system: LXFL 529 NSCLC
M14 melanoma = system: M14 melanoma
M19-MEL melanoma = system: M19-MEL melanoma
MALME-3M melanoma = system: MALME-3M melanoma
MOLT-4 leukemia = system: MOLT-4 leukemia
NCI-H226 lung = system: NCI-H226 lung
NCI-H23 lung = system: NCI-H23 lung
NCI-H460 lung = system: NCI-H460 lung
NCI-H522 lung = system: NCI-H522 lung
OVCAR-3 ovarian = system: OVCAR-3 ovarian
OVCAR-4 ovarian = system: OVCAR-4 ovarian
OVCAR-5 ovarian = system: OVCAR-5 ovarian
OVCAR-8 ovarian = system: OVCAR-8 ovarian
RPMI-8226 leukemia = system: RPMI-8226 leukemia
RXF 393 renal = system: RXF 393 renal
SF-268 CNS = system: SF-268 CNS
SF-295 CNS = system: SF-295 CNS
SF-539 CNS = system: SF-539 CNS
SK-MEL-2 melanoma = system: SK-MEL-2 melanoma
SK-MEL-28 melanoma = system: SK-MEL-28 melanoma
SK-MEL-5 melanoma = system: SK-MEL-5 melanoma
SK-OV-3 ovarian = system: SK-OV-3 ovarian
SN12C renal = system: SN12C renal
SNB-19 CNS = system: SNB-19 CNS
SNB-75 CNS = system: SNB-75 CNS
SNB-78 CNS = system: SNB-78 CNS
SR leukemia = system: SR leukemia
SW-620 colon = system: SW-620 colon
TK-10 renal = system: TK-10 renal
U251 CNS = system: U251 CNS
UACC-257 melanoma = system: UACC-257 melanoma
UACC-62 melanoma = system: UACC-62 melanoma
UO-31 renal = system: UO-31 renal
XF 498 CNS = system: XF 498 CNS

Structure (SMILES): CN(C)c1ccc(/C=c2\sc3nnc(Cc4ccccc4)n3c2=O)cc1
- GI50 (786-0 renal): > 100 µM
- TGI (786-0 renal): > 100 µM
- GI50 (A498 renal): > 100 µM
- TGI (A498 renal): > 100 µM
- GI50 (A549 NSCLC): > 10 µM
- TGI (A549 NSCLC): > 100 µM
- GI50 (ACHN renal): > 10 µM
- TGI (ACHN renal): > 100 µM
- GI50 (CAKI-1 renal): > 100 µM
- TGI (CAKI-1 renal): > 100 µM
- GI50 (CCRF-CEM leukemia): > 100 µM
- TGI (CCRF-CEM leukemia): > 100 µM
- TGI (COLO 205 colon): > 10 µM
- GI50 (DLD-1 colon): > 100 µM
- TGI (DLD-1 colon): > 100 µM
- GI50 (DMS 114 small cell lung): > 10 µM
- TGI (DMS 114 small cell lung): > 10 µM and 33.8 µM
- GI50 (DMS 273 small cell lung): > 10 µM
- TGI (DMS 273 small cell lung): > 100 µM
- GI50 (EKVX NSCLC): > 100 µM
- TGI (EKVX NSCLC): > 100 µM
- TGI (HCC-2998 colon): > 100 µM
- GI50 (HCT-116 colon): > 10 µM
- TGI (HCT-116 colon): > 10 µM and 35.4 µM
- GI50 (HCT-15 colon): > 10 µM
- TGI (HCT-15 colon): > 10 µM and 37.8 µM
- TGI (HL-60(TB) leukemia): > 10 µM
- GI50 (HOP-18 NSCLC): > 100 µM
- TGI (HOP-18 NSCLC): > 100 µM
- GI50 (HOP-62 NSCLC): > 100 µM
- TGI (HOP-62 NSCLC): > 100 µM
- TGI (HOP-92 NSCLC): > 100 µM
- GI50 (HT29 colon): > 10 µM
- TGI (HT29 colon): > 100 µM
- GI50 (IGROV1 ovarian): > 100 µM
- TGI (IGROV1 ovarian): > 100 µM
- GI50 (K-562 leukemia): > 100 µM
- TGI (K-562 leukemia): > 100 µM
- GI50 (KM12 colon): > 100 µM
- TGI (KM12 colon): > 100 µM
- GI50 (KM20L2 colon): > 100 µM
- TGI (KM20L2 colon): > 100 µM
- TGI (LOX IMVI melanoma): > 10 µM
- GI50 (LXFL 529 NSCLC): > 100 µM
- TGI (LXFL 529 NSCLC): > 100 µM
- GI50 (M14 melanoma): > 100 µM
- TGI (M14 melanoma): > 100 µM
- TGI (M19-MEL melanoma): > 100 µM
- GI50 (MALME-3M melanoma): > 100 µM
- TGI (MALME-3M melanoma): > 100 µM
- GI50 (MOLT-4 leukemia): > 100 µM
- TGI (MOLT-4 leukemia): > 100 µM
- GI50 (NCI-H226 lung): > 100 µM
- TGI (NCI-H226 lung): > 100 µM
- GI50 (NCI-H23 lung): > 100 µM
- TGI (NCI-H23 lung): > 100 µM
- GI50 (NCI-H460 lung): > 100 µM
- TGI (NCI-H460 lung): > 100 µM
- GI50 (NCI-H522 lung): > 100 µM
- TGI (NCI-H522 lung): > 100 µM
- GI50 (OVCAR-3 ovarian): > 100 µM
- TGI (OVCAR-3 ovarian): > 100 µM
- GI50 (OVCAR-4 ovarian): > 100 µM
- TGI (OVCAR-4 ovarian): > 100 µM
- GI50 (OVCAR-5 ovarian): > 100 µM
- TGI (OVCAR-5 ovarian): > 100 µM
- GI50 (OVCAR-8 ovarian): > 100 µM
- TGI (OVCAR-8 ovarian): > 100 µM
- GI50 (RPMI-8226 leukemia): > 100 µM
- TGI (RPMI-8226 leukemia): > 100 µM
- GI50 (RXF 393 renal): > 10 µM
- TGI (RXF 393 renal): > 10 µM and 97.3 µM
- GI50 (SF-268 CNS): > 10 µM
- TGI (SF-268 CNS): > 10 µM and 57.8 µM
- GI50 (SF-295 CNS): > 100 µM
- TGI (SF-295 CNS): > 100 µM
- GI50 (SF-539 CNS): > 100 µM
- TGI (SF-539 CNS): > 100 µM
- GI50 (SK-MEL-2 melanoma): > 100 µM
- TGI (SK-MEL-2 melanoma): > 100 µM
- GI50 (SK-MEL-28 melanoma): > 100 µM
- TGI (SK-MEL-28 melanoma): > 100 µM
- GI50 (SK-MEL-5 melanoma): > 100 µM
- TGI (SK-MEL-5 melanoma): > 100 µM
- GI50 (SK-OV-3 ovarian): > 100 µM
- TGI (SK-OV-3 ovarian): > 100 µM
- GI50 (SN12C renal): > 100 µM
- TGI (SN12C renal): > 100 µM
- GI50 (SNB-19 CNS): > 100 µM
- TGI (SNB-19 CNS): > 100 µM
- GI50 (SNB-75 CNS): > 100 µM
- TGI (SNB-75 CNS): > 100 µM
- GI50 (SNB-78 CNS): > 100 µM
- TGI (SNB-78 CNS): > 100 µM
- GI50 (SR leukemia): > 100 µM
- TGI (SR leukemia): > 100 µM
- GI50 (SW-620 colon): > 10 µM
- TGI (SW-620 colon): > 10 µM and 29.2 µM
- GI50 (TK-10 renal): > 100 µM
- TGI (TK-10 renal): > 100 µM
- GI50 (U251 CNS): > 100 µM
- TGI (U251 CNS): > 100 µM
- GI50 (UACC-257 melanoma): > 100 µM
- TGI (UACC-257 melanoma): > 100 µM
- GI50 (UACC-62 melanoma): > 100 µM
- TGI (UACC-62 melanoma): > 100 µM
- TGI (UO-31 renal): > 100 µM
- GI50 (XF 498 CNS): > 100 µM
- TGI (XF 498 CNS): > 100 µM
